What all share (assay): relative viability (nuclei count vs DMSO), 5 days (fraction); higher = more cells survive
Compound in the assay “Olaparib + Navitoclax”: O=C(c1cc(Cc2n[nH]c(=O)c3ccccc23)ccc1F)N1CCN(C(=O)C2CC2)CC1 [Olaparib] + CC1(C)CCC(c2ccc(Cl)cc2)=C(CN2CCN(c3ccc(C(=O)NS(=O)(=O)c4ccc(N[C@H](CCN5CCOCC5)CSc5ccccc5)c(S(=O)(=O)C(F)(F)F)c4)cc3)CC2)C1 [Navitoclax] (partner 0.5 µM)
The essentials: (§1)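 Five library-drug doses in √10 steps were combined with a fixed anchor-drug dose, or a single drug was given alone, by pin tool to lung cancer cell lines in 1536-well plates the day after seeding. Nuclei were stained and counted after 5 days. Relative viability is the nuclei count in treated wells over that in vehicle wells, taken as the median of duplicate plates.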

Compound in the assay “Carfilzomib + Decitabine”: CC(C)C[C@H](NC(=O)[C@H](CCc1ccccc1)NC(=O)CN1CCOCC1)C(=O)N[C@@H](Cc1ccccc1)C(=O)N[C@@H](CC(C)C)C(=O)[C@@]1(C)CO1 [Carfilzomib] + Nc1ncn([C@H]2C[C@H](O)[C@@H](CO)O2)c(=O)n1 [Decitabine] (partner 2 µM)
Put shortly:
as §1

Compound in the assay “Carfilzomib + Navitoclax”: CC(C)C[C@H](NC(=O)[C@H](CCc1ccccc1)NC(=O)CN1CCOCC1)C(=O)N[C@@H](Cc1ccccc1)C(=O)N[C@@H](CC(C)C)C(=O)[C@@]1(C)CO1 [Carfilzomib] + CC1(C)CCC(c2ccc(Cl)cc2)=C(CN2CCN(c3ccc(C(=O)NS(=O)(=O)c4ccc(N[C@H](CCN5CCOCC5)CSc5ccccc5)c(S(=O)(=O)C(F)(F)F)c4)cc3)CC2)C1 [Navitoclax] (partner 0.5 µM)
The essentials:
as §1

Compound in the assay “Crizotinib + Lapatinib”: C[C@@H](Oc1cc(-c2cnn(C3CCNCC3)c2)cnc1N)c1c(Cl)ccc(F)c1Cl [Crizotinib] + CS(=O)(=O)CCNCc1ccc(-c2ccc3ncnc(Nc4ccc(OCc5cccc(F)c5)c(Cl)c4)c3c2)o1 [Lapatinib] (partner 2 µM)
The essentials:
as §1

Data on 5 cell lines can be found in the supplement of paper PMC10307832.

Consider NCI-H2405, for which the relative viability in the assay with Olaparib + Navitoclax (first compound 0.08 µM) worked out at 1.21; with Olaparib + Navitoclax (first compound 0.253 µM), 0.878; with Olaparib + Navitoclax (first compound 2.53 µM), 0.869; with Olaparib + Navitoclax (first compound 8 µM) it was 0.677; with Carfilzomib + Decitabine (first compound 0.001 µM), 0.803; with Carfilzomib + Decitabine (first compound 0.003162 µM), 0.881. For the same cell line, the relative viability is 0.763 with Carfilzomib + Decitabine (first compound 0.01 µM); 0.57 in the assay with Carfilzomib + Decitabine (first compound 0.03162 µM); 0.225 with Carfilzomib + Decitabine (first compound 0.1 µM); 1.26 with Carfilzomib + Navitoclax (first compound 0.003162 µM); 1.04 with Carfilzomib + Navitoclax (first compound 0.01 µM); 0.108 with Carfilzomib + Navitoclax (first compound 0.03162 µM). Moreover, the relative viability in the assay with Carfilzomib + Navitoclax (first compound 0.1 µM) was 0.092; with Crizotinib + Lapatinib (first compound 0.01 µM), 1.05; with Crizotinib + Lapatinib (first compound 0.03162 µM), 0.975; with Crizotinib + Lapatinib (first compound 0.1 µM) it was 0.999; with Crizotinib + Lapatinib (first compound 0.3162 µM) it was 0.952.

Take NCI-H727: the relative viability was determined as 0.42 with Olaparib + Navitoclax (first compound 0.08 µM); 0.344 in the assay with Olaparib + Navitoclax (first compound 0.253 µM); 0.321 with Olaparib + Navitoclax (first compound 2.53 µM); 0.204 with Olaparib + Navitoclax (first compound 8 µM); 0.897 with Carfilzomib + Decitabine (first compound 0.001 µM); 0.937 in the assay with Carfilzomib + Decitabine (first compound 0.003162 µM). For the same cell line, the relative viability in the assay with Carfilzomib + Decitabine (first compound 0.01 µM) is 0.836; with Carfilzomib + Decitabine (first compound 0.03162 µM), 0.9; with Carfilzomib + Decitabine (first compound 0.1 µM), 0.746; with Carfilzomib + Navitoclax (first compound 0.001 µM), 0.429; with Carfilzomib + Navitoclax (first compound 0.003162 µM), 0.637; with Carfilzomib + Navitoclax (first compound 0.01 µM), 0.601. The relative viability is 0.165 in the assay with Carfilzomib + Navitoclax (first compound 0.03162 µM); 0.137 with Carfilzomib + Navitoclax (first compound 0.1 µM); 0.837 in the assay with Crizotinib + Lapatinib (first compound 0.01 µM); 0.749 with Crizotinib + Lapatinib (first compound 0.03162 µM); 1.15 in the assay with Crizotinib + Lapatinib (first compound 0.1 µM); 0.729 with Crizotinib + Lapatinib (first compound 0.3162 µM). The relative viability in the assay with Crizotinib + Lapatinib (first compound 1 µM) was 0.888.

Take SW 1573: the relative viability in the assay with Olaparib + Navitoclax (first compound 0.08 µM) stood at 0.958; in the assay with Olaparib + Navitoclax (first compound 0.253 µM) it was 0.795; in the assay with Olaparib + Navitoclax (first compound 2.53 µM), 0.858; with Olaparib + Navitoclax (first compound 8 µM), 0.671; in the assay with Carfilzomib + Decitabine (first compound 0.001 µM), 0.551; in the assay with Carfilzomib + Decitabine (first compound 0.003162 µM), 0.52. Also, the relative viability worked out at 0.297 in the assay with Carfilzomib + Decitabine (first compound 0.01 µM); 0.0743 with Carfilzomib + Decitabine (first compound 0.03162 µM); 0.0554 with Carfilzomib + Decitabine (first compound 0.1 µM); 1.06 in the assay with Carfilzomib + Navitoclax (first compound 0.001 µM); 1.11 with Carfilzomib + Navitoclax (first compound 0.003162 µM); 0.8 with Carfilzomib + Navitoclax (first compound 0.01 µM). For the same cell line, the relative viability in the assay with Carfilzomib + Navitoclax (first compound 0.03162 µM) came to 0.0728; in the assay with Carfilzomib + Navitoclax (first compound 0.1 µM) it was 0.0538; in the assay with Crizotinib + Lapatinib (first compound 0.01 µM) it was 1.13; with Crizotinib + Lapatinib (first compound 0.03162 µM), 1.03; with Crizotinib + Lapatinib (first compound 0.1 µM), 0.956; with Crizotinib + Lapatinib (first compound 0.3162 µM), 1.07. Moreover, the relative viability in the assay with Crizotinib + Lapatinib (first compound 1 µM) stood at 1.08.

Take HCC-44: the relative viability with Olaparib + Navitoclax (first compound 0.08 µM) turned out to be 0.913; with Olaparib + Navitoclax (first compound 0.253 µM), 0.941; in the assay with Olaparib + Navitoclax (first compound 2.53 µM) it was 0.934; with Olaparib + Navitoclax (first compound 8 µM) it was 0.933; with Carfilzomib + Decitabine (first compound 0.001 µM), 0.939; with Carfilzomib + Decitabine (first compound 0.003162 µM) it was 0.893. Besides, the relative viability came to 0.917 with Carfilzomib + Decitabine (first compound 0.01 µM); 0.973 with Carfilzomib + Decitabine (first compound 0.03162 µM); 0.639 with Carfilzomib + Decitabine (first compound 0.1 µM); 0.94 in the assay with Carfilzomib + Navitoclax (first compound 0.001 µM); 1.01 in the assay with Carfilzomib + Navitoclax (first compound 0.003162 µM); 1 with Carfilzomib + Navitoclax (first compound 0.01 µM). Further, the relative viability came to 0.829 with Carfilzomib + Navitoclax (first compound 0.03162 µM); 0.261 with Carfilzomib + Navitoclax (first compound 0.1 µM); 0.96 in the assay with Crizotinib + Lapatinib (first compound 0.01 µM); 1.02 in the assay with Crizotinib + Lapatinib (first compound 0.03162 µM); 1.14 in the assay with Crizotinib + Lapatinib (first compound 0.1 µM); 1.05 with Crizotinib + Lapatinib (first compound 1 µM).

For A-427, the relative viability with Olaparib + Navitoclax (first compound 0.08 µM) amounted to 0.946; with Olaparib + Navitoclax (first compound 0.253 µM) it was 0.93; in the assay with Olaparib + Navitoclax (first compound 2.53 µM), 0.526; in the assay with Olaparib + Navitoclax (first compound 8 µM) it was 0.554; in the assay with Carfilzomib + Decitabine (first compound 0.001 µM), 0.587; with Carfilzomib + Decitabine (first compound 0.003162 µM), 0.565. In addition, the relative viability with Carfilzomib + Decitabine (first compound 0.01 µM) was found to be 0.591; with Carfilzomib + Decitabine (first compound 0.03162 µM), 0.527; in the assay with Carfilzomib + Decitabine (first compound 0.1 µM), 0.178; in the assay with Carfilzomib + Navitoclax (first compound 0.001 µM) it was 0.954; with Carfilzomib + Navitoclax (first compound 0.003162 µM) it was 1.01; with Carfilzomib + Navitoclax (first compound 0.01 µM), 1.04. Also, the relative viability came to 0.644 in the assay with Carfilzomib + Navitoclax (first compound 0.03162 µM); 0.113 in the assay with Carfilzomib + Navitoclax (first compound 0.1 µM); 0.852 with Crizotinib + Lapatinib (first compound 0.01 µM); 1.07 in the assay with Crizotinib + Lapatinib (first compound 0.03162 µM); 1.09 in the assay with Crizotinib + Lapatinib (first compound 0.1 µM); 1.12 in the assay with Crizotinib + Lapatinib (first compound 1 µM).
